From the supplement of paper PMC10627819

Assays:
S. pneumoniae D39V [1] = test: Bliss interaction score (quartile over a dose matrix) (fitness difference); higher = more antagonism (negative = synergy)
Outline: (§1)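 Fitness was derived from optical density at entry into stationary phase, divided by the robust mean of the no-drug wells on the same plate. That reading was taken as OD595, and the ratio was capped at 1. Single-drug fitness was inferred from the combination data. The Bliss score, observed fitness minus the expected product of single-drug fitness, was summarised as quartiles over technical, biological and donor/recipient replicates.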

B. subtilis 168 [2] = test: as above
Outline: as §1

S. aureus DSM 20231 [3] = test: as above
Outline: as §1

S. aureus Newman [4] = test: as above
Outline: as §1

S. pneumoniae D39V [5] = test: fitness (endpoint OD595 vs no drug) (fraction); higher = more growth
Outline: (§2)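 Volumes were 30 µl per well, or 55 µl for S. pneumoniae, in 384-well plates inoculated at OD595 0.01. Media were TSB, LB Lennox or CY at 37 °C, and OD595 was read every 30 min for 14 h with first-reading background subtraction. Fitness is the ratio of optical density at stationary-phase entry to the robust mean of no-drug controls. That ratio is capped at 1.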

B. subtilis 168 [6] = test: as above
Outline: as §2

S. aureus DSM 20231 [7] = test: as above
Outline: as §2

S. aureus Newman [8] = test: as above
Outline: as §2

[9] = first compound 0.0312 µg/mL, partner 12.5 µg/mL
[10] = first compound 0.0312 µg/mL, partner 25 µg/mL
[11] = first compound 0.0312 µg/mL, partner 50 µg/mL
[12] = first compound 0.125 µg/mL, partner 25 µg/mL
[13] = first compound 0.125 µg/mL, partner 50 µg/mL
[14] = first compound 12.5 µg/mL, partner 4 µg/mL
[15] = first compound 12.5 µg/mL, partner 8 µg/mL
[16] = first compound 12.5 µg/mL, partner 16 µg/mL
[17] = first compound 25 µg/mL, partner 4 µg/mL
[18] = first compound 25 µg/mL, partner 8 µg/mL
[19] = first compound 25 µg/mL, partner 16 µg/mL
[20] = first compound 50 µg/mL, partner 4 µg/mL
[21] = first compound 50 µg/mL, partner 8 µg/mL
[22] = first compound 12.5 µg/mL, partner 32 µg/mL, one replicate
[23] = first compound 12.5 µg/mL, partner 64 µg/mL, one replicate
[24] = first compound 25 µg/mL, partner 32 µg/mL, one replicate
[25] = first compound 25 µg/mL, partner 64 µg/mL, one replicate
[26] = first compound 50 µg/mL, partner 32 µg/mL, one replicate
[27] = first compound 50 µg/mL, partner 64 µg/mL, one replicate
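For Bliss interaction score (quartile over a dose matrix) in this document: first quartile when negative (synergy) and third quartile when positive (antagonism).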

Structure (SMILES): CCC[C@@H]1C[C@@H](C(=O)N[C@@H]([C@H]2O[C@H](SC)[C@H](O)[C@@H](O)[C@H]2O)[C@H](C)Cl)N(C)C1 [Clindamycin] + O=C(O[C@@H]1Cc2c(O)cc(O)cc2O[C@@H]1c1cc(O)c(O)c(O)c1)c1cc(O)c(O)c(O)c1 [EGCG]
- Bliss interaction score (S. pneumoniae D39V [1]): -0.108
- Bliss interaction score (B. subtilis 168 [2]): 0.136
- Bliss interaction score (S. aureus DSM 20231 [3]): 0.0371
- Bliss interaction score (S. aureus Newman [4]): -0.0691
- fitness (S. pneumoniae D39V [5]; first compound 0.0125 µg/mL, partner 12.5 µg/mL): 0.703
- fitness (S. pneumoniae D39V [5]; first compound 0.0125 µg/mL, partner 25 µg/mL): 0.686
- fitness (S. pneumoniae D39V [5]; first compound 0.0125 µg/mL, partner 50 µg/mL): 0.605
- fitness (S. pneumoniae D39V [5]; first compound 0.015 µg/mL, partner 12.5 µg/mL): 0.734
- fitness (S. pneumoniae D39V [5]; first compound 0.015 µg/mL, partner 25 µg/mL): 0.661
- fitness (S. pneumoniae D39V [5]; first compound 0.015 µg/mL, partner 50 µg/mL): 0.538
- fitness (S. pneumoniae D39V [5]; first compound 0.025 µg/mL, partner 12.5 µg/mL): 0.466
- fitness (S. pneumoniae D39V [5]; first compound 0.025 µg/mL, partner 25 µg/mL): 0.405
- fitness (S. pneumoniae D39V [5]; first compound 0.025 µg/mL, partner 50 µg/mL): 0.392
- fitness (S. pneumoniae D39V [5]; first compound 0.03 µg/mL, partner 12.5 µg/mL): 0.466
- fitness (S. pneumoniae D39V [5]; first compound 0.03 µg/mL, partner 25 µg/mL): 0.414
- fitness (S. pneumoniae D39V [5]; first compound 0.03 µg/mL, partner 50 µg/mL): 0.3
- fitness (S. pneumoniae D39V [5]; first compound 0.05 µg/mL, partner 12.5 µg/mL): 0.173
- fitness (S. pneumoniae D39V [5]; first compound 0.05 µg/mL, partner 25 µg/mL): 0.168
- fitness (S. pneumoniae D39V [5]; first compound 0.05 µg/mL, partner 50 µg/mL): 0.178
- fitness (S. pneumoniae D39V [5]; first compound 0.06 µg/mL, partner 12.5 µg/mL): 0.312
- fitness (S. pneumoniae D39V [5]; first compound 0.06 µg/mL, partner 25 µg/mL): 0.315
- fitness (S. pneumoniae D39V [5]; first compound 0.06 µg/mL, partner 50 µg/mL): 0.22
- fitness (B. subtilis 168 [6]; first compound 0.0039 µg/mL, partner 6.25 µg/mL, one replicate): 0.986
- fitness (B. subtilis 168 [6]; first compound 0.0039 µg/mL, partner 12.5 µg/mL, one replicate): 0.511
- fitness (B. subtilis 168 [6]; first compound 0.0039 µg/mL, partner 25 µg/mL, one replicate): 0.401
- fitness (B. subtilis 168 [6]; first compound 0.0078 µg/mL, partner 6.25 µg/mL, one replicate): 0.862
- fitness (B. subtilis 168 [6]; first compound 0.0078 µg/mL, partner 12.5 µg/mL, one replicate): 0.402
- fitness (B. subtilis 168 [6]; first compound 0.0078 µg/mL, partner 25 µg/mL, one replicate): 0.362
- fitness (B. subtilis 168 [6]; first compound 0.0156 µg/mL, partner 6.25 µg/mL, one replicate): 0.85
- fitness (B. subtilis 168 [6]; first compound 0.0156 µg/mL, partner 12.5 µg/mL, one replicate): 0.383
- fitness (B. subtilis 168 [6]; first compound 0.0156 µg/mL, partner 25 µg/mL, one replicate): 0.374
- fitness (B. subtilis 168 [6]; first compound 0.25 µg/mL, partner 6.25 µg/mL): 0.356
- fitness (B. subtilis 168 [6]; first compound 0.25 µg/mL, partner 12.5 µg/mL): 0.337
- fitness (B. subtilis 168 [6]; first compound 0.25 µg/mL, partner 25 µg/mL): 0.119
- fitness (S. aureus DSM 20231 [7]; [9]): 0.485
- fitness (S. aureus DSM 20231 [7]; [10]): 0.49
- fitness (S. aureus DSM 20231 [7]; [11]): 0.416
- fitness (S. aureus DSM 20231 [7]; first compound 0.0625 µg/mL, partner 25 µg/mL): 0.172
- fitness (S. aureus DSM 20231 [7]; first compound 0.0625 µg/mL, partner 50 µg/mL): 0.115
- fitness (S. aureus DSM 20231 [7]; first compound 0.125 µg/mL, partner 12.5 µg/mL): 0.0823
- fitness (S. aureus DSM 20231 [7]; [12]): 0.0417
- fitness (S. aureus DSM 20231 [7]; [13]): 0.0383
- fitness (S. aureus Newman [8]; [9]): 0.603
- fitness (S. aureus Newman [8]; [10]): 0.587
- fitness (S. aureus Newman [8]; [11]): 0.598
- fitness (S. aureus Newman [8]; [12]): 0.0771
- fitness (S. aureus Newman [8]; [13]): 0.046

Structure (SMILES): O=C(O[C@@H]1Cc2c(O)cc(O)cc2O[C@@H]1c1cc(O)c(O)c(O)c1)c1cc(O)c(O)c(O)c1 [EGCG] + CN[C@@H]1[C@H](O)[C@H](NC)[C@H]2O[C@@]3(O)C(=O)C[C@@H](C)O[C@H]3O[C@@H]2[C@H]1O [Spectinomycin]
- Bliss interaction score (S. pneumoniae D39V [1]): -0.0456
- Bliss interaction score (B. subtilis 168 [2]): -0.0513
- Bliss interaction score (S. aureus DSM 20231 [3]): -0.0655
- Bliss interaction score (S. aureus Newman [4]): -0.0777
- fitness (S. pneumoniae D39V [5]; [14]): 0.918
- fitness (S. pneumoniae D39V [5]; [15]): 0.892
- fitness (S. pneumoniae D39V [5]; [16]): 0.662
- fitness (S. pneumoniae D39V [5]; [17]): 0.884
- fitness (S. pneumoniae D39V [5]; [18]): 0.858
- fitness (S. pneumoniae D39V [5]; [19]): 0.692
- fitness (S. pneumoniae D39V [5]; [20]): 0.928
- fitness (S. pneumoniae D39V [5]; [21]): 0.942
- fitness (B. subtilis 168 [6]; first compound 6.25 µg/mL, partner 2 µg/mL): 0.919
- fitness (B. subtilis 168 [6]; first compound 6.25 µg/mL, partner 4 µg/mL): 0.959
- fitness (B. subtilis 168 [6]; first compound 6.25 µg/mL, partner 8 µg/mL): 0.942
- fitness (B. subtilis 168 [6]; [15]): 0.755
- fitness (B. subtilis 168 [6]; [18]): 0.351
- fitness (S. aureus DSM 20231 [7]; [14]): 0.716
- fitness (S. aureus DSM 20231 [7]; [15]): 0.841
- fitness (S. aureus DSM 20231 [7]; [16]): 0.783
- fitness (S. aureus DSM 20231 [7]; [22]): 0.732
- fitness (S. aureus DSM 20231 [7]; [23]): 0.118
- fitness (S. aureus DSM 20231 [7]; [17]): 0.795
- fitness (S. aureus DSM 20231 [7]; [18]): 0.829
- fitness (S. aureus DSM 20231 [7]; [19]): 0.696
- fitness (S. aureus DSM 20231 [7]; [24]): 0.693
- fitness (S. aureus DSM 20231 [7]; [25]): 0.0939
- fitness (S. aureus DSM 20231 [7]; [20]): 0.762
- fitness (S. aureus DSM 20231 [7]; [21]): 0.778
- fitness (S. aureus DSM 20231 [7]; first compound 50 µg/mL, partner 16 µg/mL): 0.724
- fitness (S. aureus DSM 20231 [7]; [26]): 0.556
- fitness (S. aureus DSM 20231 [7]; [27]): 0.028
- fitness (S. aureus Newman [8]; [14]): 0.775
- fitness (S. aureus Newman [8]; [15]): 0.825
- fitness (S. aureus Newman [8]; [16]): 0.783
- fitness (S. aureus Newman [8]; [22]): 0.385
- fitness (S. aureus Newman [8]; [23]): 0.0419
- fitness (S. aureus Newman [8]; [17]): 0.631
- fitness (S. aureus Newman [8]; [18]): 0.784
- fitness (S. aureus Newman [8]; [24]): 0.167
- fitness (S. aureus Newman [8]; [25]): 0.0446
- fitness (S. aureus Newman [8]; [21]): 0.748
- fitness (S. aureus Newman [8]; [26]): 0.0466
- fitness (S. aureus Newman [8]; [27]): 0.0186
